Test results as given in patent publication US5025016A, “Pyrimidine-thioalkyl pyridine derivatives, medicaments containing these compounds, and method of treatment” (Ludwig Heumann & Co. GmbH, priority 1983, dated 1991).
Structures can show the parent of a compound that is named as a salt.

Experiments:
[1] = test system: tracheal secretion of phenol red; test: Secretion-stimulating activity: tracheal secretion of phenol red after oral administration to female mice; assay type: in vivo; conditions: Mus musculus, calculated from the regression curves
Experimental: Bronchosecretolytic compounds promote the tracheal secretion of phenol red (Chronic Bronchitis Research Group, Chinese Medical Journal 3: 259, 1977). The increase in the tracheal secretion of phenol red is a measure of bronchosecretolytic activity. This activity of the test substances was investigated after oral administration to female mice. The ED50 -values shown in Table 1 were calculated from the regression curves.

[2] = test system: carrageenin-induced inflammation (oedema formation); test: Antiphlogistic activity: carrageenin-oedema test, right-hand rear paw; assay type: in vivo; conditions: 100 mg/kg i.g., 30 minutes before injection of the carrageenin; male rats
Experimental: The antiphlogistic properties of the compounds according to the invention were determined by the carrageenin-oedema test in male rats (average weight 130-160 g, SIV 50, Messrs Ivanovas, Kisslegg). The inhibition of the carrageenin-induced inflammation (oedema formation) was measured on the right-hand rear paw. The test substances were administered intragastrally by esophagus probe 30 minutes before injection of the carrageenin. The results are shown in Table II (Higgs et.al., European Journal of Pharmacology 66, 81-86 (1980)).

Compound	ED50 [1]	Inhibition in % (carrageenin-induced oedema formation) [2]
CC(Sc1ncccn1)c1cccnc1 (stereo not shown) [Example 7, 2-(pyridyl-3-(2-ethylthio)-pyrimidine oxalate]	15 mg/kg	
Nc1cc(O)nc(SCc2cccnc2)n1 [Example 3, 4-amino-6-hydroxy-2-(pyridyl-3-methylthio)-pyrimidine]	2 mg/kg	
Cc1ccnc([S+]([O-])Cc2cccnc2)n1 (stereo not shown) [Example 11, 4-methyl-2-(pyridyl-3-methylsulfinyl)-pyrimidine oxalate]	10 mg/kg	
[O-][S+](Cc1ccncc1)c1ncccn1 (stereo not shown) [Example 10, 2-(pyridyl-4-methylsulfinyl)-pyrimidine hydrochloride]	100 mg/kg	
Cc1ccc(C(C)Sc2ncccn2)cn1 (stereo not shown) [Example 8]	> 100 mg/kg	
C[n+]1cccc(CSc2ncccn2)c1 [Example 12, 2-(3-methylthio-1-methylpyridinium)-pyrimidine iodide]	1 mg/kg	
CC[n+]1cccc(CSc2ncccn2)c1 [Example 13, 2-(3-methylthio-1-ethylpyridinium)-pyrimidine iodide]	70 mg/kg	
Nc1ccnc(SCc2cccnc2)n1 [Example 1, 4-amino-2-(pyridyl-3-methylthio)-pyrimidine]	5 mg/kg	
Nc1cc(O)nc(SCc2ccc(Cl)nc2)n1 [Example 6, 4-amino-6-hydroxy-2-(pyridyl-6-chloro-3-methylthio)-pyrimidine]	2 mg/kg	
Nc1c(Br)cc(Br)cc1CN[C@H]1CC[C@H](O)CC1 [Ambroxol, trans-4-(2-amino-3,5-dibromobenzyl)-aminocyclohexanol, reference compound]	250 mg/kg	
Nc1cc(N)nc(SCc2cccnc2)n1 [Example 4, 4,6-diamino-2-(pyridyl-3-methylthio)-pyrimidine succinate]	> 100 mg/kg	30%
Cc1cc(O)nc(SCc2cccnc2)n1 [Example 5, 4-hydroxy-6-methyl-2-(pyridyl-3-methylthio)-pyrimidine]	15 mg/kg	
[O-][S+](Cc1cccnc1)c1ncccn1 (stereo not shown) [Example 9, 2-(pyridyl-3-methylsulfinyl)-pyrimidine hydrochloride]	2 mg/kg	
Oc1ccnc(SCc2cccnc2)n1 [Example 2, 4-hydroxy-2-(pyridyl-3-methylthio)-pyrimidine]	100 mg/kg	45%
